For one assay, the system named is CLL cells. Nature of the assay: α-tubulin polymerization assay in CLL cells. Type of assay: cell-based, human. Particulars: paclitaxel. How it is done: The Institutional Review Board of the University of California, San Diego approved this study, and all patients gave informed written consent to participation. Subjects had CLL according to National Cancer Institute (NCI) criteria of any Rai stage. None of the patients were in active chemotherapeutic treatments. Flow cytometric analysis determined that all specimens contained more than 90% CD5+ CD19+ B cells.
Peripheral blood from CLL patients or normal donors was layered on top of Ficoll-Paque Plus (Pharmacia, NJ) and centrifuged at 1200×g for twenty minutes. The enriched peripheral blood mononuclear cells (PBL) were washed several times with Ca++, Mg++-free HBSS.
(§1) All primary cells were cultured in RPMI 1640 medium with 20% fetal bovine serum (regular medium) at a density of 2-5×10^6 cell/ml. In some cases, the PBL were stimulated for 24 hours with 1 μg/ml anti-CD3 and anti-CD28 antibodies (Alexis, San Diego, Calif.) prior to immunoblot analysis.
(§2) α-tubulin Polymerization Assay.
For each data point, 2×10^6 of cells were incubated in 2ml of regular medium containing drugs for various periods of time. The cells were then washed twice at room temperature, and resuspended in 50 μl of α-tubulin extraction buffer (1 mM MgCl2, 2 m MEGTA, 0.5% NP-40, 20 mM Tris-HCl, pH=6.8) supplemented with 2 mM phenylmethysulfonyl fluoride, and a protease inhibitor cocktail (Sigma). […]

A further assay relates to activated PBL. The assay can be described thus: α-tubulin polymerization assay in PBL activated with anti-CD3 and anti-CD28 antibodies. Type of assay: cell-based, human. Particulars: PBL activated 24 hrs with anti-CD3 and anti-CD28, paclitaxel for one hour. How it is done: as §1, §2
After a brief but vigorous vortex, the lysates were incubated at room temperature for 5 minutes, and then centrifuged at 16,000×g for 5 minutes to separate the soluble from polymerized α-tubulin. The supernatant and pellet fractions were resolved on 10-20% pre-cast tris-glycine gels (Novex, San Diego, Calif.) and then subjected to immune blotting with a specific anti-α-tubulin antibody.
The cytosolic (S) monomeric and particulate-bound (P) polymerized forms of α-tubulin were separated by centrifugation from drug-treated cells and assayed by immunoblotting.

Regarding `CC(=O)O[C@H]1C(=O)[C@@]2(C)[C@H]([C@H](OC(=O)c3ccccc3)[C@]3(O)C[C@H](OC(=O)[C@H](O)[C@@H](NC(=O)c4ccccc4)c4ccccc4)C(C)=C1C3(C)C)[C@]1(OC(C)=O)CO[C@@H]1C[C@@H]2O` [paclitaxel], in the assay on CLL cells, the “α-tubulin relocalization to the particulate fraction after treatment” value is recorded as “nearly complete relocalization of α-tubulin to the particulate fraction”. In addition, the “α-tubulin in the particulate fraction after treatment” value in the assay on activated PBL is reported as “shift of α-tubulin to the particulate-bound fraction”.

For the origin of these results see US20040096436A1, “Methods for inhibiting protein kinases in cancer cells” (priority 2002, published 2004).
